Reference: patent US7473790B2 (Pfizer Inc., priority 2003, dated 2009)

The molecules below were run against T1, HCV polymerase (Hepatitis C virus genotype 1b, UniProt P26663) (assay: HCV polymerase primer/template-directed transcription assay (32P-GTP incorporation, filter binding)). Details: @ 20 uM compound; given where IC50 was impractical to calculate; read-out: percent inhibition.
T1 construct: 2.5 pmoles (0.15 μg) HCV polymerase protein in a final volume of 75 μL
T1 sequence (P26663 2420-3010): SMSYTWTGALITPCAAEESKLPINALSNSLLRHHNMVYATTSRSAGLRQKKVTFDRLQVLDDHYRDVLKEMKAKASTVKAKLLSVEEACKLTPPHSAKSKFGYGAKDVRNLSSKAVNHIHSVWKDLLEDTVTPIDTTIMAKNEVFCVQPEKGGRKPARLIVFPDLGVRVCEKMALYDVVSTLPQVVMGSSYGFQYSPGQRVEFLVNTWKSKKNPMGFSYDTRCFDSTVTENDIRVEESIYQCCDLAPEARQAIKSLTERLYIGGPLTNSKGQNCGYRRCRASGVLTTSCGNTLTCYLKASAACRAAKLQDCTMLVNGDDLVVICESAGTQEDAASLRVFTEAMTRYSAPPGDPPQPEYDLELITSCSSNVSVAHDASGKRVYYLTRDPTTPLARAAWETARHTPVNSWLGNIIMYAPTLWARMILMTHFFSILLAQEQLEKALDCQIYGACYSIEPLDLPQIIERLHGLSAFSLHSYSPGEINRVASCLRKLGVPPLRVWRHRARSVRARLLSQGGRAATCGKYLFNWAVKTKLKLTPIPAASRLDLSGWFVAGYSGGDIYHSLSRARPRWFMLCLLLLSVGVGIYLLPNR
Assay type: biochemical
Method in brief: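 Recombinant genotype 1b polymerase (30 nM) extended biotin-dG12 primer on poly(rC)300 template with 1 μM GTP plus α-32P-GTP, pH 7.2, 10 mM MgCl2, 30 min at 30° C, 1% DMSO final. Products captured on DE filters and counted. IC50 fitted from triplicate cpm, with a tight-binding correction applied below 200 nM.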
For `O=C1CC(=O)OC(CCc2ccccn2)(C2CCCC2)C1` (stereo not drawn) [A(82), 6-Cyclopentyl-6-(2-pyridin-2-yl-ethyl)-dihydro-pyran-2,4-dione], the inhibition at 20 µM was 11%.

Same assay, conditions: @ 50 uM compound; given where IC50 was impractical to calculate; read-out: percent inhibition
`CCC1(CC)CC(O)=C(Sc2nc3nc(C)cc(C)n3n2)C(=O)O1` [C(18), 3-(5,7-Dimethyl-[1,2,4]triazolo[1,5-a]pyrimidin-2-ylsulfanyl)-6,6-diethyl-4-hydroxy-5,6-dihydro-pyran-2-one] showed an inhibition at 50 µM of 2%.

Same assay, conditions: recombinant HCV polymerase; 30 minutes at 30° C.; concentration giving 50% inhibition of polymerase-directed transcription; read-out: IC50
`COc1cc(OC)c(CCC2(C3CCCC3)CC(O)=C(Sc3nc4ncccn4n3)C(=O)O2)cc1Cl` (stereo not drawn) [C(84)] gave an IC50 of 33 nM. For `O=C1CC(=O)OC(CCCNC(=O)CCc2ccco2)(C2CCCC2)C1` (stereo not drawn) [H(3), N-[3-(2-Cyclopentyl-4,6-dioxo-tetrahydro-pyran-2-yl)-propyl]-3-furan-2-yl-propionamide], the IC50 was 1200 nM. In the case of `O=C1CC(=O)OC(CCc2ccc(O)c(Cl)c2)(C2CCCC2)C1` (stereo not drawn) [A(95), 6-[2-(3-Chloro-4-hydroxy-phenyl)-ethyl]-6-cyclopentyl-dihydro-pyran-2,4-dione], the IC50 is reported as 2100 nM. `CCc1ccc(O)c(CCC2(C3CCCC3)CC(O)=C(Cc3nc4ncc(Cl)cn4n3)C(=O)O2)c1` (single isomer, unassigned; enantiomer 1) [A(171), Enantiomer 1 of 3-(6-Chloro-[1,2,4]triazolo[1,5-a]pyrimidin-2-ylmethyl)-6-cyclopentyl-6-[2-(5-ethyl-2-hydroxy-phenyl)-ethyl]-4-hydroxy-5,6-dihydro-pyran-2-one] showed an IC50 of 4 nM. `COc1cc(OC)c(CCC2(C3CCCC3)CC(O)=C(Sc3nnc(CN(C)C)n3C)C(=O)O2)cc1Cl` (stereo not drawn) [C(83)] was tested, and the IC50 was 40 nM. With `COc1cc(OC)c(CCC2(C3CCCC3)CC(O)=C(Cc3c[nH]c(C)n3)C(=O)O2)cc1Cl` (stereo not drawn) [B(35), 6-[2-(5-Chloro-2,4-dimethoxy-phenyl)-ethyl]-6-cyclopentyl-4-hydroxy-3-(2-methyl-1H-imidazol-4-ylmethyl)-5,6-dihydro-pyran-2-one] the IC50 was 70 nM. Work on `CCc1ccc(O)c(CCC2(C3CCCC3)CC(=O)CC(=O)O2)c1` (stereo not drawn) [A(169), 6-Cyclopentyl-6-[2-(5-ethyl-2-hydroxy-phenyl)-ethyl]-dihydro-pyran-2,4-dione] yielded an IC50 of 400 nM. With `CC(C)(O)c1ccc(CCC2(C3CCCC3)CC(O)=C(Cc3nc4ncccn4n3)C(=O)O2)cc1F` (stereo not drawn) [A(220), 6-cyclopentyl-6-{2-[3-fluoro-4-(1-hydroxy-1-methylethyl)phenyl]ethyl}-4-hydroxy-3-([1,2,4]triazolo[1,5-a]pyrimidin-2-ylmethyl)-5,6-dihydro-2H-pyran-2-one] the IC50 was 172 nM. `CCc1cc(CCC2(C3CCCC3)CC(O)=C(Cc3nc4nc(C)cc(C)n4n3)C(=O)O2)ccc1O` (stereo not drawn) [B(07), 6-Cyclopentyl-3-(5,7-dimethyl-[1,2,4]triazolo[1,5-a]pyrimidin-2-ylmethyl)-6-[2-(3-ethyl-4-hydroxy-phenyl)-ethyl]-4-hydroxy-5,6-dihydro-pyran-2-one] gave an IC50 of 1 nM. For `COC1=CC(=O)OC(CCc2ccc(OC)c(Cl)c2)(C2CCCC2)C1` (stereo not drawn) [G(3), 6-[2-(3-Chloro-4-methoxy-phenyl)-ethyl]-6-cyclopentyl-4-methoxy-5,6-dihydro-pyran-2-one], the IC50 was 29000 nM. In the case of `CCc1cc(CCC2(C3CCCC3)CC(O)=C(Cc3nc4nc(C)ccn4n3)C(=O)O2)ccc1O` (stereo not drawn) [A(229), 6-cyclopentyl-6-[2-(3-ethyl-4-hydroxyphenyl)ethyl]-4-hydroxy-3-[(5-methyl[1,2,4]triazolo[1,5-a]pyrimidin-2-yl)methyl]-5,6-dihydro-2H-pyran-2-one], the IC50 is reported as 10 nM. In the case of `CCOc1ccc(CCC2(C3CCCC3)CC(=O)CC(=O)O2)cc1C` (stereo not drawn) [A(03), 6-Cyclopentyl-6-[2-(4-ethoxy-3-methyl-phenyl)-ethyl]-dihydro-pyran-2,4-dione], the IC50 is reported as 4300 nM. For `CC(C)n1c(SC2=C(O)CC(CCCC3CCCCC3)(C3CCCC3)OC2=O)nc2cc(Cl)ccc21` (stereo not drawn) [C(31), 3-(5-Chloro-1-isopropyl-1H-benzoimidazol-2-ylsulfanyl)-6-(3-cyclohexyl-propyl)-6-cyclopentyl-4-hydroxy-5,6-dihydro-pyran-2-one], the IC50 was 510 nM. `CC1(c2ccc(CCC3(C4CCCC4)CC(=O)CC(=O)O3)cc2Cl)CC(=O)CC(=O)O1` (stereo not drawn) [A(27), 6-[2-(3-Chloro-4-(6-Methyl-dihydro-pyran-2,4-dione)-phenyl)-ethyl]-6-cyclopentyl-dihydro-pyran-2,4-dione] was tested, and the IC50 was 125 nM. In the case of `Cc1cc(C)n2nc(CC3=C(O)CC(CCc4ccc(C(C)(C)C#N)c(Cl)c4)(C4CCCC4)OC3=O)nc2n1` (stereo not drawn) [A(146), 2-(2-Chloro-4-{2-[2-cyclopentyl-5-(5,7-dimethyl-[1,2,4]triazolo[1,5-a]pyrimidin-2-ylmethyl)-4-hydroxy-6-oxo-3,6-dihydro-2H-pyran-2-yl]-ethyl}-phenyl)-2-methyl-propionitrile], the IC50 is reported as 2 nM. `CC(C)(CNC(=O)c1cc[nH]n1)c1cccc(CCC2(C3CCCC3)CC(=O)CC(=O)O2)c1` (stereo not drawn) [A(71), 1H-Pyrazole-3-carboxylic acid (2-{3-[2-(2-cyclopentyl-4,6-dioxo-tetrahydro-pyran-2-yl)-ethyl]-phenyl}-2-methyl-propyl)-amide] showed an IC50 of 1900 nM. Work on `CSc1ccccc1C#CCCC1(C2CCCC2)CC(=O)CC(=O)O1` (stereo not drawn) [F(3), 6-Cyclopentyl-6-[4-(2-methylsulfanyl-phenyl)-but-3-ynyl]-dihydro-pyran-2,4-dione] yielded an IC50 of 8400 nM. Molecule `Cc1cc(C)n2nc(CC3=C(O)CC(CCc4cccc(C(C)(C)C)c4)(C4CCCC4)OC3=O)nc2n1` (stereo not drawn) [B(03), 6-[2-(3-tert-Butyl-phenyl)-ethyl]-6-cyclopentyl-3-(5,7-dimethyl-[1,2,4]triazolo[1,5-a]pyrimidin-2-ylmethyl)-4-hydroxy-5,6-dihydro-pyran-2-one] has an IC50 of 5 nM. `CC(C)Oc1ccc(CCC2(C3CCCC3)CC(O)=C(Sc3nnc(-c4ccccc4)[nH]3)C(=O)O2)cc1F` (stereo not drawn) [C(24), 6-Cyclopentyl-6-[2-(3-fluoro-4-isopropoxy-phenyl)-ethyl]-4-hydroxy-3-(5-phenyl-4H-[1,2,4]triazol-3-ylsulfanyl)-5,6-dihydro-pyran-2-one] gave an IC50 of 51 nM. `COc1ccc(CCC2(C3CCCC3)CC(=O)C(Cc3nccn3C)C(=O)O2)cc1Cl` (stereo not drawn) [B(48), 6-[2-(3-chloro-4-methoxyphenyl)ethyl]-6-cyclopentyl-3-[(1-methyl-1H-imidazol-2-yl)methyl]dihydro-2H-pyran-2,4(3H)-dione] was tested, and the IC50 was 700 nM. `COc1cc(OC)c(CCC2(C3CCCC3)CC(O)=C(Sc3nnc(C)n3C)C(=O)O2)cc1Cl` (stereo not drawn) [C(88), 6-[2-(5-chloro-2,4-dimethoxyphenyl)ethyl]-6-cyclopentyl-3-[(4,5-dimethyl-4H-1,2,4-triazol-3-yl)thio]-4-hydroxy-5,6-dihydro-2H-pyran-2-one] gave an IC50 of 22 nM. `COc1ccc(CCC2(C3CCCC3)CC(O)=C(Sc3nc4ncc(C)cn4n3)C(=O)O2)cc1Cl` (stereo not drawn) [C(98), 6-[2-(3-chloro-4-methoxyphenyl)ethyl]-6-cyclopentyl-4-hydroxy-3-[(6-methyl[1,2,4]triazolo[1,5-a]pyrimidin-2-yl)thio]-5,6-dihydro-2H-pyran-2-one] gave an IC50 of 68 nM. `COCc1ccc(CCC2(C3CCCC3)CC(=O)CC(=O)O2)cc1F` (stereo not drawn) [A(08), 6-Cyclopentyl-6-[2-(3-fluoro-4-methoxymethyl-phenyl)-ethyl]-dihydro-pyran-2,4-dione] was tested, and the IC50 was 6000 nM. `CCc1cc(CCC2(C3CCCC3)CC(=O)CC(=O)O2)c2c(c1O)CCO2` (stereo not drawn) [A(181), 6-Cyclopentyl-6-[2-(5-ethyl-4-hydroxy-2,3-dihydro-benzofuran-7-yl)-ethyl]-dihydro-pyran-2,4-dione] was tested, and the IC50 was 600 nM. `Cc1cc(C)n2nc(SC3=C(O)CC(CCNC(=O)CCc4ccco4)(C4CCCC4)OC3=O)nc2n1` (stereo not drawn) [H(4), N-{2-[2-Cyclopentyl-5-(5,7-dimethyl-[1,2,4]triazolo[1,5-a]pyrimidin-2-ylsulfanyl)-4-hydroxy-6-oxo-3,6-dihydro-2H-pyran-2-yl]-ethyl}-3-furan-2-yl-propionamide] was tested, and the IC50 was 60000 nM. For `COc1ccc(CCC2(C3CCCC3)CC(O)=C(Sc3nncn3C(C)(C)C)C(=O)O2)cc1Cl` (stereo not drawn) [C(34), 3-[(4-tert-butyl-4H-1,2,4-triazol-3-yl)thio]-6-[2-(3-chloro-4-methoxyphenyl)ethyl]-6-cyclopentyl-4-hydroxy-5,6-dihydro-2H-pyran-2-one], the IC50 was 53 nM. With `CCc1cc(CCC2(C3CCCC3)CC(=O)CC(=O)O2)c(OC)cc1O` (stereo not drawn) [A(151), 6-Cyclopentyl-6-[2-(5-ethyl-4-hydroxy-2-methoxy-phenyl)-ethyl]-dihydro-pyran-2,4-dione] the IC50 was 300 nM. Molecule `Cc1cc(C)n2nc(CC3=C(O)CC(CCc4ccc(O)c(C5CCCC5)c4)(C4CCCC4)OC3=O)nc2n1` (stereo not drawn) [A(135), 6-cyclopentyl-6-[2-(3-cyclopentyl-4-hydroxyphenyl)ethyl]-3-[(5,7-dimethyl[1,2,4]triazolo[1,5-a]pyrimidin-2-yl)methyl]-4-hydroxy-5,6-dihydro-2H-pyran-2-one] has an IC50 of 15 nM. `CN(C)C(=O)c1ccc(CCC2(C3CCCC3)CC(=O)CC(=O)O2)cc1F` (stereo not drawn) [A(16), 4-[2-(2-Cyclopentyl-4,6-dioxo-tetrahydro-pyran-2-yl)-ethyl]-2-fluoro-N,N-dimethyl-benzamide] was tested, and the IC50 was 14400 nM. `O=C1OC(CCC#Cc2cccc(O)c2)(C2CCCC2)CC(O)=C1Sc1nccs1` (stereo not drawn) [F(7), 6-Cyclopentyl-4-hydroxy-6-[4-(3-hydroxy-phenyl)-but-3-ynyl]-3-(thiazol-2-ylsulfanyl)-5,6-dihydro-pyran-2-one] gave an IC50 of 7500 nM. Work on `CCOc1c(Cl)cc(CCC2(C3CCCC3)CC(O)=C(Cc3nc4nc(C)cc(C)n4n3)C(=O)O2)cc1Cl` (stereo not drawn) [B(37), 6-Cyclopentyl-6-[2-(3,5-dichloro-4-ethoxy-phenyl)-ethyl]-3-(5,7-dimethyl-[1,2,4]triazolo[1,5-a]pyrimidin-2-ylmethyl)-4-hydroxy-5,6-dihydro-pyran-2-one] yielded an IC50 of 8 nM.
